# Source: article PMC7044277 (Nature Communications, 2020)
# Several values for one entry are separate records, joined by “and”; a condition that tells them apart may be missing. Identical values can stand only once.
# Experiments:
# Format in all cases: cell-based
# 320 non-olfactory GPCRs [1] = target: 320 non-olfactory GPCRs (Homo sapiens, UniProt O95665); conditions: receptor NTSR2; replicate values, Fig_4g
# 320 non-olfactory GPCRs [2] = target: 320 non-olfactory GPCRs (Homo sapiens, UniProt P21728)
# 320 non-olfactory GPCRs [3] = target: T1, 320 non-olfactory GPCRs (Homo sapiens, UniProt P46092)
# T1 construct: expressed in transfected cells; host or cells: HTLA cells
# 320 non-olfactory GPCRs [4] = target: T2, 320 non-olfactory GPCRs (Homo sapiens, UniProt P51685)
# T2 construct: expressed in transfected cells; host or cells: HTLA cells
# 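For Fold of Basal in this document: compound tested at 1 µM final concentration.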
# 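For GPCRome agonism screen response in this document: fold over basal response of each receptor without drug.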
# Sequence of 320 non-olfactory GPCRs (Homo sapiens, UniProt O95665) (O95665 whole entry): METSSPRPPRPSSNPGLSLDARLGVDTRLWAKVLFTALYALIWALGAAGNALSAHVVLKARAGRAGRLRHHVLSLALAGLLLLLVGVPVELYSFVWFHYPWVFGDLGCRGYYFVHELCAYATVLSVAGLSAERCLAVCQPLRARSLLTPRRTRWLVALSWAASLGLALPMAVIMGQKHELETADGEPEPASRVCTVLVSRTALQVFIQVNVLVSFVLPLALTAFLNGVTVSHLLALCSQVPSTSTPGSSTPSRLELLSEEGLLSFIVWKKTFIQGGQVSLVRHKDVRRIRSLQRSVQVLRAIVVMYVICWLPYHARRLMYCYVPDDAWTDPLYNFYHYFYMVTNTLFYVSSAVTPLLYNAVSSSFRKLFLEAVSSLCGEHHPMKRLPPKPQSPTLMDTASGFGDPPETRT
# Sequence of 320 non-olfactory GPCRs (Homo sapiens, UniProt P21728) (P21728 whole entry): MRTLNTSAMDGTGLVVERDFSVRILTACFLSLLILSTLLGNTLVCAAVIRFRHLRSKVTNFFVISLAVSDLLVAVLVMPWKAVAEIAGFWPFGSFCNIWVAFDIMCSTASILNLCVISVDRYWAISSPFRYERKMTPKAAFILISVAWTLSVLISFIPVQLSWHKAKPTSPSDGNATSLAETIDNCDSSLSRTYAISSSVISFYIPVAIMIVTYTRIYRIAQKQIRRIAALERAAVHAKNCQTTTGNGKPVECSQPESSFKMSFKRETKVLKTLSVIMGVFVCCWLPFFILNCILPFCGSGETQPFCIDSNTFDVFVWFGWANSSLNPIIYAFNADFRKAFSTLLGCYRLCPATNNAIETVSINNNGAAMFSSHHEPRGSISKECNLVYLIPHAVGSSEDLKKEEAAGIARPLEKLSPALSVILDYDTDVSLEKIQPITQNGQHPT
# T2 sequence (P51685 whole entry): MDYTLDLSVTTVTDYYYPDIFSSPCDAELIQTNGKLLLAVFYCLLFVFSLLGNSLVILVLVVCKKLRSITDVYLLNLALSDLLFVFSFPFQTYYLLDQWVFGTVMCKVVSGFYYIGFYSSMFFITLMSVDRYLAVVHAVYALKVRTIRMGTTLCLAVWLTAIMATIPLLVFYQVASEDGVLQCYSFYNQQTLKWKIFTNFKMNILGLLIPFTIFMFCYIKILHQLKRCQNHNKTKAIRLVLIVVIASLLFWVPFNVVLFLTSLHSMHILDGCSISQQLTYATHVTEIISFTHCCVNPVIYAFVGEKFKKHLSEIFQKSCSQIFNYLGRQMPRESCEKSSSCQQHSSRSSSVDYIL
# T1 sequence (P46092 whole entry): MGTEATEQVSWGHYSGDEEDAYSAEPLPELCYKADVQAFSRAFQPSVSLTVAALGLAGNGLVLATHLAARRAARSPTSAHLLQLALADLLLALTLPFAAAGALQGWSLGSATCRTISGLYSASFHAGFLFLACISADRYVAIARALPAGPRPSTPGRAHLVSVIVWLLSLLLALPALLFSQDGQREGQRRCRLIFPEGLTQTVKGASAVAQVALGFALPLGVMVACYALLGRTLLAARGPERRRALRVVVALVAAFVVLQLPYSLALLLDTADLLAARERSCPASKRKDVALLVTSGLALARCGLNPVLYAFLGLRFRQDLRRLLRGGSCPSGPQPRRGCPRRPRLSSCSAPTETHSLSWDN
compound,measurement,setting,value
CCOc1cccc2cc(C(C)NCC3(O)CCCCC3)oc12 (stereo not shown) [O4LE6],GPCRome agonism screen response,320 non-olfactory GPCRs [1],0.5368 and 0.5673 and 0.48 and 0.67
same,Fold of Basal,320 non-olfactory GPCRs [2],0.7632 and 1.021 and 0.953 and 0.8141
same,Fold of Basal,320 non-olfactory GPCRs [3],0.7929 and 1.009 and 0.769 and 1.275
same,Fold of Basal,320 non-olfactory GPCRs [4],1.057 (2×) and 0.6946 and 0.6945
